Among the data in PubChem BioAssay AID588735 (Vanderbilt Specialized Chemistry Center, 2011) are fold shift, Emax and Emin values, retold here.

This assay deals with Metabotropic glutamate receptor 5 (Rattus norvegicus) (UniProt P31424). The experiment in a line: PubChem AID 588735. The following applies: HEK293 rat mGluR5, calcium fluorescence, at 10 µM, stronger effect = higher value.
Chain of Metabotropic glutamate receptor 5 (Rattus norvegicus) (P31424 whole entry, looked up): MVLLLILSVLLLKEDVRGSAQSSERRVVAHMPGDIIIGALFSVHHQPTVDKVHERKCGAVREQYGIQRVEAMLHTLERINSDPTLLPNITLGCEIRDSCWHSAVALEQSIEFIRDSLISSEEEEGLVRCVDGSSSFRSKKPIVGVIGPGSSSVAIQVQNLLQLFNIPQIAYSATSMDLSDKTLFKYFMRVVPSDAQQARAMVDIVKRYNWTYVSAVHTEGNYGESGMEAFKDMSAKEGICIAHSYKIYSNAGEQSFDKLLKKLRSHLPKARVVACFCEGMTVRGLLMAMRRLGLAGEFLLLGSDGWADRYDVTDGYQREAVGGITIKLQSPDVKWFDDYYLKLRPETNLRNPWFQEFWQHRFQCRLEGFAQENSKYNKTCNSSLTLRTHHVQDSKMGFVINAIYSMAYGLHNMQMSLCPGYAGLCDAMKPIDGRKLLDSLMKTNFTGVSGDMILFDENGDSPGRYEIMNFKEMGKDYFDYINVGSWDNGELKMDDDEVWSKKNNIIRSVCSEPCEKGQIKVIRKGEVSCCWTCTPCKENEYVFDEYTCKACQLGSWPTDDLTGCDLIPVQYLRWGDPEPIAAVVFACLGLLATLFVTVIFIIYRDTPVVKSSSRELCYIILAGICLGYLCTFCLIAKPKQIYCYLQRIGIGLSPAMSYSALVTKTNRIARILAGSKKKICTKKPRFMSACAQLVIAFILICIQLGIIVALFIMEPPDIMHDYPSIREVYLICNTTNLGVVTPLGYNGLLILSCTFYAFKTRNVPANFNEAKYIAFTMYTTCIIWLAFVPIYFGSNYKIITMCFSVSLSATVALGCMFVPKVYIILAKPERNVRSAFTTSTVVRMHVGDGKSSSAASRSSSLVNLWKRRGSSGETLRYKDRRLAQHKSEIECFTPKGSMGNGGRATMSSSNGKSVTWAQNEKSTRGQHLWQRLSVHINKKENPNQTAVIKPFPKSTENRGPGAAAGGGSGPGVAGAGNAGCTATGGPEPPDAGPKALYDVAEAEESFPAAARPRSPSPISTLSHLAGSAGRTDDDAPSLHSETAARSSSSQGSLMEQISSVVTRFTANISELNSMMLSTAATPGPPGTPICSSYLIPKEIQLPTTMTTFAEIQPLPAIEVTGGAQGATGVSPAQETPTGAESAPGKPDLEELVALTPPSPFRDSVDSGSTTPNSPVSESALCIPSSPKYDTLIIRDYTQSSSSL

As to `C[C@@H](NC(=O)c1ccc(C#Cc2cccc(F)c2)cn1)C(C)(C)O`, the fold shift is 4.6. Besides, the Emax (glutamate fold shift, glutamate max response with compound) was found to be 62%. Also, the Emin (glutamate fold shift, glutamate min response (ago-PAM)) came out at 45%.

By Emax is commonly meant the size of the effect at its maximum, as opposed to the concentration needed.
